# Reference: patent US20250353867A1, “Substituted Pyridine-2,6-Bis(Phenylenephenolate) Complexes with Enhanced Solubility that are Useful as Catalyst Components for Olefin Polymerization” (EXXONMOBIL CHEMICAL PATENTS INC., priority 2022, published 2025)
# “And” between values parts separate entries of the source, which are not always exact repeats. Identical values can stand only once.
# Experiments:
# [1] = Solubility of complexes in isohexane at room temperature; format: physicochemical; conditions: room temperature (20° C.-25° C.); for Solubility in isohexane: cocrystallized solvent included in formula weight; for Solubility in isohexane (wt %): cocrystallized solvent included in mass
# Method: General considerations: Solubility studies were performed using complexes that were isolated as crystalline or microcrystalline solids. […] Complex 3, embodying the present technological advancement, was cocrystallized with 0.6 equivalents of isohexane. Complex 4, embodying the present technological advancement, was cocrystallized with 0.5 equivalents of isohexane. Solvents used were sparged with nitrogen (30-60 minutes) and dried over 3 angstrom molecular sieves. Unless stated otherwise all measurements were performed at ambient temperature (20° C.-25° C.).
# General procedure: A tared vial was loaded with a small amount of the complex (actual mass recorded, typically 5-30 mg). Then a small stir bar (8 mm) was added. Solvent was then added and the mixture was stirred rapidly (1000 rpm). […] This process was repeated until either a clear solution was obtained (no visible solids or murkiness) or the vial was full. As the mixture approached homogeneity (i.e., few remaining solids observed) the volume of the solvent additions was kept small (<1 mL) to minimize the overshooting of the solvent required to achieve homogeneity. The stir bar was then removed and the mass of the mixture was measured. If a clear solution had formed then the solubility of the complex was calculated based on the mass of complex and the amount of solvent added to achieve a homogeneous solution. If the mixture remained heterogeneous (visible solids or murky), then the value reported is given as being “less than” the calculated value. Formulas used to calculate solubility are listed below. Cocrystallized solvent is included in the mass and formula weights of the complexes. The density of isohexane used in the calculations was 0.672 g/ml, and the density of the complex was assumed to be 1.0 g/ml.
# Solubility (in wt %)=[100]*[(weight of complex)/(weight of solution)]
# Solubility (in mM)=[10^6]*[(grams of complex)/(formula wt. of complex in g/mol)]/[(grams of solvent)/(density of solvent in g/mL)]
# [2] = Propylene polymerization, catalyst activity
# Text: Solutions of the pre-catalysts were made using toluene (ExxonMobil Chemical-anhydrous, stored under N2) (98%) or isohexane (ExxonMobil Chemical—polymerization grade, and purified as described below). Pre-catalyst solutions were typically 0.25 mmol/L.
# Activation of the pre-catalysts was either by dimethylanilinium tetrakisperfluorophenylborate (Boulder Scientific or Albemarle Corp; Act ID=A) or (hydrogenated tallow alkyl)methylammonium tetrakis(pentafluorophenyl)borate supplied as a 10 wt % solution in methylcyclohexane (Boulder Scientific; Act ID=B). Activators were typically used as a 0.25 mmol/L solution in toluene or isohexane.
# Tri-n-octylaluminum (TnOAl or TNOA, Neat, AkzoNobel) was also used as a scavenger prior to introduction of the activator and pre-catalyst into the reactor. TNOA was typically used as a 5 mmol/L solution in toluene or isohexane.
# Polymerizations were conducted in an inert atmosphere (N2) drybox using autoclaves equipped with an external heater for temperature control, glass inserts (internal volume of 22.5 mL), septum inlets, regulated supply of nitrogen and propylene, and equipped with disposable PEEK mechanical stirrers (800 RPM). The autoclaves were prepared by purging with dry nitrogen at 110° C. or 115° C. for 5 hours and then at 25° C. for 5 hours.
# The reactor was prepared as described above, then heated to 40° C., and then purged with propylene gas at atmospheric pressure. Toluene or isohexanes, liquid propylene (1.0 mL) and scavenger (TNOA, 0.5 μmol) were added via syringe. The reactor was then brought to process temperature (70° C. or 100° C.) while stirring at 800 RPM. The activator solution, followed by the pre-catalyst solution, were injected via syringe to the reactor at process conditions. Reactor temperature was monitored and typically maintained within +/−1° C. Polymerizations were halted by addition of approximately 50 psi compressed dry air gas mixture to the autoclaves for approximately 30 seconds. The polymerizations were quenched based on a predetermined pressure loss (maximum quench value) or for a maximum of 30 minutes. The reactors were cooled and vented. The polymers were isolated after the solvent was removed in-vacuo. The actual quench time (s) is reported as quench time (s). Yields reported include total weight of polymer and residual catalyst. […] Propylene homopolymerization examples are reported in Table 2 with additional characterization in Table 3.
# Polymerization results are collected in Tables 2. “Ex #” stands for example number. Example numbers starting with a “C” are comparative examples. “Cat ID” identifies the pre-catalyst used in the experiment. Corresponding numbers identifying the pre-catalyst (also referred to as pre-catalyst, catalyst, complex or compound) are located in the synthetic experimental section. T (° C.) is the polymerization temperature which was typically maintained within +/−1° C. “Yield” is polymer yield, and is not corrected for catalyst residue. “Quench time (s)” is the actual duration of the polymerization run in seconds. For propylene homopolymerization runs, quench value indicates the maximum set pressure loss (conversion) of propylene during the polymerization. Activity is reported at grams polymer per mmol of catalyst per hour.
# Activator A is N,N-dimethylanilinium tetrakis(pentafluorophenyl)borate activator and activator B is (hydrogenated tallow alkyl)methylammonium tetrakis(pentafluorophenyl)borate. When activator A was used, both the pre-catalyst and activator solutions were in toluene. When activator B was used, both pre-catalyst and activator solutions were in isohexane. Small amounts of methylcyclohexane (MCH) result from activator B being supplied by the manufacturer as a 10 wt % solution in methylcyclohexane.
# [3] = Activator B ((hydrogenated tallow alkyl)methylammonium tetrakis(pentafluorophenyl)borate), T 100 °C, solutions in isohexane, no toluene
# [4] = Activator B ((hydrogenated tallow alkyl)methylammonium tetrakis(pentafluorophenyl)borate), T 70 °C, solutions in isohexane, no toluene
Compound,Solubility in isohexane [1] [mM],Solubility in isohexane (wt %) [1] [wt %],"Activity (g P/mmol cat · hr) [2, 3]","Activity (g P/mmol cat · hr) ([2]; Activator A (N,N-dimethylanilinium tetrakis(pentafluorophenyl)borate), T 100 °C, catalyst and activator solutions in toluene)","Activity (g P/mmol cat · hr) [2, 4]"
CCCCOc1ccc2c(c1)-c1cc(C)cc(C34CC5CC(CC(C5)C3)C4)c1[O][Zr]([CH3])([CH3])[O]c1c(cc(C)cc1C13CC4CC(CC(C4)C1)C3)-c1cc(OCCCC)ccc1-c1cccc-2n1 [Complex 3],1.10,0.168,,,
CCCCOc1ccc2c(c1)-c1cc(C(C)(C)C)cc(C34CC5CC(CC(C5)C3)C4)c1[O][Zr]([CH3])([CH3])[O]c1c(cc(C(C)(C)C)cc1C13CC4CC(CC(C4)C1)C3)-c1cc(OCCCC)ccc1-c1cccc-2n1 [Complex 4],15.7,2.55,"2,448,000 g P/mmol cat · hr and 2,638,800 g P/mmol cat · hr and 1,007,059 g P/mmol cat · hr",,
CCCCCCCCOc1ccc2c(c1)-c1cc(C(C)(C)C)cc(C34CC5CC(CC(C5)C3)C4)c1[O][Zr]([CH3])([CH3])[O]c1c(cc(C(C)(C)C)cc1C13CC4CC(CC(C4)C1)C3)-c1cc(OCCCCCCCC)ccc1-c1cccc-2n1 [Complex 5],,,"2,700,444 g P/mmol cat · hr and 1,772,923 g P/mmol cat · hr and 2,571,840 g P/mmol cat · hr","3,376,421 g P/mmol cat · hr and 2,318,545 g P/mmol cat · hr and 2,591,040 g P/mmol cat · hr","6,656,571 g P/mmol cat · hr and 5,844,800 g P/mmol cat · hr and 5,664,000 g P/mmol cat · hr"
CCCCCCCCCCCCOc1ccc2c(c1)-c1cc(C(C)(C)C)cc(C34CC5CC(CC(C5)C3)C4)c1[O][Zr]([CH3])([CH3])[O]c1c(cc(C(C)(C)C)cc1C13CC4CC(CC(C4)C1)C3)-c1cc(OCCCCCCCCCCCC)ccc1-c1cccc-2n1 [Complex 6],,,,,"1,713,412 g P/mmol cat · hr and 1,940,093 g P/mmol cat · hr and 1,864,216 g P/mmol cat · hr"
"dimethylzirconium[2′,2′″-(pyridine-2,6-diyl)bis(3-adamantan-1-yl)-5-(tert-butyl)-[1,1′-biphenyl]-2-olate)] [Complex 2, reference compound]",,,"2,345,000 g P/mmol cat · hr and 2,682,545 g P/mmol cat · hr and 2,225,032 g P/mmol cat · hr",,"2,069,268 g P/mmol cat · hr and 4,201,200 g P/mmol cat · hr and 3,074,182 g P/mmol cat · hr"
